Drawing on US8304422B2, “Compositions and methods for inhibition of the JAK pathway” (Rigel Pharmaceuticals, Inc., priority 2007, dated 2012), this text covers IC50 for 36 compounds.

The assay deals with BaF3 V617F cells; UKE-1. As to the kind of experiment: Proliferation Assay (Cell Titer-Glo; Example 7). The format is cell-based. As to conditions: proliferation 72 hours, inhibit JAK2 activity, cell line (BaF3 V617F or UKE-1) not stated. The method in brief:
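Proliferation IC50s reflect 72 h compound exposure at 37 °C, read by Cell Titer-Glo luminescence. Compound was serially diluted 3-fold from a 5 mM DMSO stock and added as a 2× solution; BaF3 V617F cells were grown in RPMI/10% FBS, UKE-1 in Iscove's DMEM with FBS, equine serum and hydrocortisone.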
One may read the IC50 as the concentration at which inhibition is half-maximal. Low values mean greater potency, high ones weaker potency. Consider `COc1c(C)cc(Nc2ncc(C)c(Nc3ccc(CNS(=O)(=O)N(C)C)cc3)n2)cc1C` [II-99, 4-[(4-(Dimethylamino)sulfonylamino)methylphenyl]-N2-(3,5-dimethyl-4-methoxyphenyl)-5-methyl-2,4-pyrimidinediamine], for which the IC50 was determined as 103 nM.

The compound `COc1cc(Nc2ncc(Cl)c(Nc3ccc(CNS(=O)(=O)NC4CC4)cc3)n2)cc(C)c1OC` [II-158, 5-Chloro-N4-[4-((N-cyclopropylamino)sulfonylamino)methylphenyl]-N2-(3,4-dimethoxy-5-methylphenyl)-2,4-pyrimidinediamine] showed a half-maximal inhibitory concentration (IC50) of 158 nM.

In the case of “5-Chloro-N4-[4-[N-(Cyclopropylsulfonyl)-N′-((3-ethoxycarbonyl)propion-1-yl)amino]methylphenyl]-N2-(3,5-dimethyl-4-methoxyphenyl)-2,4-pyrimidinediamine [II-140]”, the IC50 was determined as 251 nM.

In turn, `COc1cc(C)c(Nc2ncc(C)c(Nc3ccc(CCNS(=O)(=O)C4CC4)cc3)n2)c(C)c1` [II-62] displayed a half-inhibitory concentration (IC50) of 438 nM.

For “5-Chloro-N4-[3,4-dihydro-1,1-dioxide-2H-1,2-benzothiazin-7-yl]-N2-[4-(N-methylpiperizin-4-yl)phenyl]-2,4-pyrimidinediamine [VII-2]”, the half-inhibitory concentration (IC50) was 371 nM.

As to `Cc1cnc(Nc2ccc(C3CCN(C)CC3)cc2)nc1Nc1ccc2c(c1)[C@H](NS(C)(=O)=O)CC2` [V-11, (1R)-5-Methyl-N2-[4-(1-methyl-4-piperidinyl)pheny]-N4-[1-(methylsulfonyl)aminoindan-6-yl]-2,4-pyrimidinediamine], the midpoint of inhibition, the IC50, lay at 2160 nM.

`CCOc1c(C)cc(Nc2ncc(Cl)c(Nc3ccc(CNS(=O)(=O)C4CC4)cc3)n2)cc1C` [II-211, 5-Chloro-N4-[4-(N-cyclopropylsulfonylamino)methylphenyl]-N2-[3,5-dimethyl-4-ethoxyphenyl]-2,4-pyrimidinediamine] registered a half-maximal inhibitory concentration (IC50) of 39.4 nM.

Turning to `CCNS(=O)(=O)NCc1ccc(Nc2nc(Nc3cc(C)c(OC)c(OC)c3)ncc2C)cc1` [II-117, N2-(3,4-Dimethoxy-5-methylphenyl)-N4-[(4-(ethylamino)sulfonylamino)methylphenyl]-5-methyl-2,4-pyrimidinediamine], the 50% inhibitory concentration (IC50) worked out at 208 nM.

The compound `COc1cc(Nc2ncc(C)c(Nc3ccc(CNS(=O)(=O)N(C)C)cc3)n2)cc(OC)c1OC` [II-103, N4-[(4-(Dimethylamino)sulfonylamino)methylphenyl]-5-methyl-N2-(3,4,5-trimethoxyphenyl)-2,4-pyrimidinediamine] came in with an IC50 of 509 nM.

Compound “5-Chloro-N2-[3-methyl-4-(methyl-1-piperazinyl)phenyl]-N4-[1,2,3,4-tetrahydro-2-(ethylsulfonyl)-5-isoquinolinyl]-2,4-pyrimidinediamine [VI-2]” yielded an IC50 of 2800 nM.

`COc1c(C)cc(Nc2ncc(Cl)c(Nc3ccc4c(c3)S(=O)(=O)NCC4)n2)cc1C` [VII-1, 5-Chloro-N4-[3,4-dihydro-1,1-dioxide-2H-1,2-benzothiazin-7-yl]-N2-[3,5-dimethyl-4-methoxyphenyl]-2,4-pyrimidinediamine] had a 50% inhibitory concentration (IC50) of 229 nM.

On to `CCOc1cc(C)c(Nc2ncc(C)c(Nc3ccc(CCNS(=O)(=O)C4CC4)cc3)n2)c(C)c1` [II-63], for which half-maximal inhibition (IC50) required 530 nM.

Turning to “N4-[4-(N-cyclopropylsulfonylamino)ethylphenyl)]-5-methyl-N2-[4-(6-methoxy-2-methyl)methoxyphenyl]-2,4-pyrimidinediamine [II-66]”, the IC50 was 467 nM.

Consider `CCNS(=O)(=O)NCc1cccc(Nc2nc(Nc3cc(C)c(OC)c(C)c3)ncc2F)c1` [II-137, N2-(3,5-Dimethyl-4-methoxyphenyl)-N4-[(3-(ethylamino)sulfonylamino)methylphenyl]-5-fluoro-2,4-pyrimidinediamine], for which the 50% inhibitory concentration (IC50) worked out at 541 nM.

The compound `Cc1cnc(Nc2ccc(N3CCC(F)(F)CC3)cc2)nc1Nc1ccc(CNS(=O)(=O)N(C)C)cc1` [II-105, N4-[(4-(Dimethylamino)sulfonylamino)methylphenyl]-N2-[4-(4,4-difluoro-1-piperidinyl)phenyl]-5-methyl-2,4-pyrimidinediamine] showed an IC50 of 20300 nM.

For `CCNS(=O)(=O)NCc1ccc(Nc2nc(Nc3cc(Cl)c(OC)c(OC)c3)ncc2Cl)cc1` [II-113, 5-Chloro-N2-(3-chloro-4,5-dimethoxyphenyl)-N4-[(4-(ethylamino)sulfonylamino)methylphenyl]-2,4-pyrimidinediamine], the IC50 was 286 nM.

In the case of `COc1c(C)cc(Nc2ncc(Cl)c(Nc3ccc(CNS(=O)(=O)C4CC4)cc3C)n2)cc1C` [II-150, 5-Chloro-N2-(3,5-dimethyl-4-methoxyphenyl)-N4-[2-methyl-4-(N-cyclopropylsulfonylamino)methylphenyl]-2,4-pyrimidinediamine], the IC50 is 307 nM.

Regarding `Cc1cnc(Nc2cncc(C)c2N2CCN(C)CC2)nc1Nc1ccc(CNS(=O)(=O)C2CC2)cc1` [II-224, 5-Methyl-N4-[4-(N-cyclopropylsulfonylamino)methylphenyl]-N2-[5-methyl-4-(N-methylpiperizin-4-yl)pyridin-3-yl]-2,4-pyrimidinediamine], the IC50 came out at 848 nM.

`O=S(=O)(NCCc1ccc(Nc2nc(Nc3ccc(-c4ccccc4)cc3)ncc2Cl)cc1)C1CC1` [II-58, 5-Chloro-N4[4-(N-cyclopropylsulfonylamino)ethylphenyl]-N2-[4-biphenyl]-2,4-pyrimidinediamine] showed an IC50 of 16200 nM.

In turn, `Cc1cnc(Nc2ccc(N3CCN(C4CC5CCC4C5)CC3)cc2)nc1Nc1ccc(CNS(=O)(=O)C2CC2)cc1` (stereo not drawn) [II-60, N-(4-(2-(4-(4-(bicyclo[2.2.1]heptan-2-yl)piperazin-1-yl)phenylamino)-5-methylpyrimidin-4-ylamino)benzyl)cyclopropanesulfonamide] registered an IC50 of 391 nM.

Compound “5-Bromo-N4-[3-(N-tert-butylsulfonyl)phenyl]-N2-[4-(4-methylpiperazine)-phenyl]-2,4-pyrimidinediamine [I-18]” came in with an IC50 of 832 nM.

`Cc1cc(CNS(=O)(=O)C2CC2)ccc1Nc1nc(Nc2ccc(N3CCN(C)CC3)c(C)c2)ncc1Cl` [II-153, 5-Chloro-N4-[2-methyl-4-(N-cyclopropylsulfonylamino)methylphenyl]-N2-[3-methyl-4-(4-methyl-1-piperazinyl)phenyl]-2,4-pyrimidinediamine] returned an IC50 of 3330 nM.

`CCNS(=O)(=O)NCc1cccc(Nc2nc(Nc3ccc(N4CCN(C)CC4)c(C)c3)ncc2C)c1` [II-136, N4-[3-((Ethylamino)sulfonylamino)methylphenyl]-5-methyl-N2-[3-methyl-4-(4-methyl-1-piperazinyl)phenyl]-2,4-pyrimidinediamine] returned an IC50 of 2140 nM.

In turn, `Cc1cnc(Nc2cc(C)c(C)c(C)c2)nc1Nc1ccc2c(c1)S(=O)(=O)NCC2` [VII-8, 5-Methyl-N4-[3,4-dihydro-1,1-dioxide-2H-1,2-benzothiazin-7-yl]-N2-[3,4,5-trimethylphenyl]-2,4-pyrimidinediamine] displayed a concentration for half-maximal inhibition (IC50) of 1610 nM.

Regarding `CCNS(=O)(=O)NCc1ccc(Nc2nc(Nc3ccc(C4CCN(C)CC4)cc3)ncc2Cl)cc1` [II-115, 5-chloro-N4-[(4-(ethylamino)sulfonylamino)methylphenyl]-N2-[4-(1-methyl-4-piperidinyl)pheny]-2,4-pyrimidinediamine], 409 nM corresponded to half-maximal inhibition (IC50).

As to `COc1cc(Nc2ncc(Cl)c(Nc3cccc(S(=O)(=O)NC(C)(C)C)c3)n2)cc(OC)c1OC` [I-15, 5-Chloro-N4-[3-(N-tert-butylsulfonyl)phenyl]-N2-[3,4,5-trimethoxyphenyl]-2,4-pyrimidinediamine], the concentration for half-maximal inhibition (IC50) was determined as 225 nM.

In turn, “5-Chloro-N4-[4-(N-cyclopropylsulfonylamino)methylphenyl]-N2-[4-(N-ethylpiperizin-4-yl)phenyl]-2,4-pyrimidinediamine [II-205]” had an IC50 of 135 nM.

`Cc1cnc(Nc2ccc(N3CCN(C)CC3)nc2)nc1Nc1ccc(CCNS(=O)(=O)C2CC2)cc1` [II-69] displayed a half-maximal inhibitory concentration (IC50) of 1810 nM.

`CCCOc1c(C)cc(Nc2ncc(Cl)c(Nc3ccc(CNS(=O)(=O)C4CC4)cc3)n2)cc1C` [II-221, 5-Chloro-N4-[4-(N-cyclopropylsulfonylamino)methylphenyl]-N2-[3,5-dimethyl-4-(1-propoxy)phenyl]-2,4-pyrimidinediamine] displayed an IC50 of 238 nM.

Consider `Cc1cnc(Nc2cc(C)c(OC(C)C)c(C)c2)nc1Nc1ccc(CNS(=O)(=O)C2CC2)cc1` [II-219, 5-Methyl-N4-[4-(N-cyclopropylsulfonylamino)methylphenyl]-N2-[3,5-dimethyl-4-(2-propoxy)phenyl]-2,4-pyrimidinediamine], for which 114 nM corresponded to half-maximal inhibition (IC50).

“5-Chloro-N4-[4-(N-cyclopropyl-N-propionylsulfonylamino)methylphenyl]-N2-[3,5-dimethyl-4-methoxyphenyl]-2,4-pyrimidinediamine [II-218]”: the concentration for half-maximal inhibition (IC50) was found to be 248 nM.

Regarding `Cc1cnc(Nc2ccc(N3CCN(C)CC3)cc2F)nc1Nc1ccc(CCNS(=O)(=O)C2CC2)cc1` [II-73], the IC50 was 595 nM.

For `COc1c(C)cc(Nc2ncc(C)c(Nc3ccc4c(c3)C(NS(=O)(=O)C3CC3)CC4)n2)cc1C` (racemic) [V-7, (+/−)-N4-[1-(Cyclopropylsulfonylamino)indan-6-yl]-N2-(3,5-dimethyl-4-methoxyphenyl)-5-methyl-2,4-pyrimidinediamine], it took 1600 nM to reach half-maximal inhibition (IC50).

Take `CCCN1CCN(c2ccc(Nc3ncc(C)c(Nc4ccc(CCNS(=O)(=O)C5CC5)cc4)n3)c(C(F)(F)F)c2)CC1` [II-71]: the IC50 came to 1400 nM.

In the case of `Cc1cc(N2CCN(C)CC2)ccc1Nc1ncc(Cl)c(Nc2ccc(CCNS(=O)(=O)C3CC3)cc2)n1` [II-52, 5-Chloro-N4[4-(N-cyclopropylsulfonylamino)ethylphenyl]-N2-[4-(4-methylpiperazino)-2-methylphenyl]-2,4-pyrimidinediamine], the 50% inhibitory concentration (IC50) is 6120 nM.

As to “5-Chloro-N4-[3-(N-tert-butylsulfonyl)phenyl]-N2-[3,5-dimethyl-4-(2-(1-morpholino)ethoxyphenyl]-2,4-pyrimidinediamine [I-21]”, the half-inhibitory concentration (IC50) was found to be 243 nM.
